pIC50: −log10 of the molar value. Like-named read-outs stand apart in the source and are kept apart here.
Experiments:
calvaria = test: Inhibition of bone resorption (45Ca release from calvaria stimulated with hPTH (1-34), method of Raisz); type: cell-based, new born ICR mouse; details: read-out: IC50 (inhibition of bone resorption)
Source text: The determination of the inhibitory action on the bone resorption was basically in accordance with the method of Raisz [J. Clin. Invest. vol.
A new born ICR mouse (one or two days old) was intraperitoneally administered with 1.5μ Ci ^45 Ca (isotope of calcium as CaCl2 solution) and calvaria was aseptically removed the next day. The calvaria was split into two along the central suture line, and one of them was used as a control and the other was used as a test compound. The calvaria was preincubated at 37° C. for 2 days in BGJb medium [0.5 ml, Fitton-Jackson modification, GIBCO Laboratories, USA, containing bovine serum albumin 1 mg/ml] added with a test compound to the concentrations of 0.04 μM, 0.2 μM and 1 μM and then in the above-mentioned medium containing 50 nM hPTH (1-34) for further 3 days. After the incubation, the ^45 Ca radioactivity in the medium and the bone was determined, and the proportion (%) of ^45 Ca released from the bone into the medium was calculated by the following formula.
Using the bone obtained from the same mouse and treated in the same manner without adding a test compound, as a control, the proportion (%) relative to the control group was determined according to the following formula.

[1] = test system: lumbar spine (L4-5) vertebral body of ovariectomized rats; test: Suppression of bone mass decrease in ovariectomized rats (osteoporosis model rats); type: in vivo, Female SD rats; details: 12 weeks, Control 46.1 ± 0.5, Normal control 56.3 ± 1.4
Experimental: Experimental Example 2 suppression of bone mass decrease
The suppressive effect of the compound of the present invention on the bone mass decrease was tested using the ovariectomized rats (osteoporosis model rats).
Female SD rats (13 weeks of age) were subjected to bilateral ovariectomies under anesthesia with Nembutal (50 mg/kg/ml, i.p.; Dai-Nippon Pharmaceutical). At the same time, a sham control group that was subjected to sham surgery without removing ovaries was prepared. The next day of the operation, the rats were grouped in such a manner that the bone mineral density (hereinafter abbreviated as BMD) of each group would reach an average. The BMD was determined by their bone mineral density of lumbar spine (L 4-5) that was measured with a DXA bone densitometer (DCS-600 R, Aloka) under ether anesthesia. The test compounds were suspended in 0.5% hydroxypropylmethylcellulose (hereinafter abbreviated as HPMC, Shin-Etsu Chemical Industries, Ltd.) and they were administered orally at the doses of 0.3, 1.0 and 3.0 mg/kg (5 ml/kg:) for 12 weeks daily from the day following the operation. As a positive control, 17 β-estradiol (Sigma) was dissolved in 5% benzyl alcohol and 95% corn oil, and administered subcutaneously at a dose of 50 μg/kg (1 ml/kg) twice a week for 12 weeks. 0.5% HPMC was administered orally to the normal control and the control for 12 weeks at 5 ml/kg. The next day of the final administration, the rats were exsanguinated and killed under ether anesthesia and the lumbar spine (L4-5) was recovered. The soft tissues and processes were removed from the obtained lumbar spine and BMD of the vertebral body (L4-5) was determined with DCS-600 R (Aloka).
The results are shown by mean±S.E. of the respective groups and the statistical evaluations of the effect of respective groups were made by one-way analysis of variance. The significance was ascribed at less than 5%.

[2] = Mus musculus, 72 h, 45Ca release, 50 nM hPTH (1-34), 3 days incubation, test concentrations 0.04, 0.2 and 1 μM, mean of 4 pairs
[3] = 0.3 mg/kg p.o., daily, n=9, mean ± S.E.
[4] = 1 mg/kg p.o., daily, n=8, mean ± S.E., *p < 0.05
[5] = 3 mg/kg p.o., daily, n=9, mean ± S.E., **p < 0.01

pIC50 (calvaria; [2]) | Compound | further results
6.27 | Cc1nnc2n1-c1ccccc1C(c1ccc(Cl)cc1)=NN2Cc1cccnc1 [Example 54, 6-(4-Chlorophenyl)-1-methyl-4-(pyridin-3-ylmethyl)-4H-2,3,4,5,10b-pentaazabenz[e]azulene] | BMD of body of vertebra [1, 3]: 46.2 ± 0.4 mg/cm^2; BMD of body of vertebra [1, 4]: 47.3 ± 0.6 mg/cm^2; BMD of body of vertebra [1, 5]: 51.6 ± 0.4 mg/cm^2
 | C[C@]12CC[C@@H]3c4ccc(O)cc4CC[C@H]3[C@@H]1CC[C@@H]2O [17 β-estradiol, reference compound] | BMD of body of vertebra ([1]; positive control, 0.05 mg/kg s.c., twice a week, n=8, mean ± S.E.): 53.5 ± 0.7 mg/cm^2
6.17 | CCc1cc2c(s1)-n1c(C)nnc1N(Cc1ccncc1)N=C2c1ccccc1 [Example 148, 2-Ethyl-9-methyl-4-phenyl-6-(pyridin-4-ylmethyl)-6H-5,6,7,8,9a-pentaazathien[2,3-e]azulene] | 
6.37 | Cc1nnc2n1-c1ccccc1C(c1ccc(Cl)cc1)=NN2Cc1ccc(C#N)cc1 [Example 74, 6-(4-Chlorophenyl)-4-(4-cyanobenzyl)-1-methyl-4H-2,3,4,5,10b-pentaazabenz[e]azulene] | 
6.23 | Cc1ccc(C2=NN(Cc3cccc(C#N)c3)c3nnc(C)n3-c3ccccc32)cc1 [Example 136, 4-(3-Cyanobenzyl)-1-methyl-6-(4-methylphenyl)-4H-2,3,4,5,10b-pentaazabenz [e]azulene] | 
6.74 | Cc1nnc2n1-c1ccc([N+](=O)[O-])cc1C(c1ccccc1)=NN2Cc1ccncc1 [Example 134, 1-Methyl-8-nitro-6-phenyl-4-(pyridin-4-ylmethyl)-4H-2,3,4,5,10b-pentaazabenz[e]azulene] | 
6.17 | CCc1cc2c(s1)-n1c(C)nnc1N(Cc1cccnc1)N=C2c1ccc(Cl)cc1 [Example 141, 4-(4-Chlorophenyl)-2-ethyl-9-methyl-6-(pyridin-3-ylmethyl)-6H-5,6,7,8,9a-pentaazathien[2,3-e]azulene] | 
6.00 | Cc1ccc2c(c1)-n1c(C)nnc1N(Cc1ccncc1)N=C2c1ccccc1 [Example 131, 1,9-Dimethyl-6-phenyl-4-(pyridin-4-ylmethyl)-4H-2,3,4,5,10b-pentaazabenz[e]azulene] | BMD of body of vertebra [1, 3]: 46.5 ± 0.8 mg/cm^2; BMD of body of vertebra [1, 4]: 48.5 ± 0.5 mg/cm^2; BMD of body of vertebra [1, 5]: 51.3 ± 0.9 mg/cm^2
 | Cc1nnc2n1-c1ccccc1C(c1ccc(Cl)cc1)=NN2Cc1cccnc1 [Example 98, 6-(4-Chlorophenyl)-1-methyl-4-(pyridin-3-ylmethyl)-4H-2,3,4,5,10b-pentaazabenz[e]azulene] | pIC50 (calvaria; 45Ca release, 50 nM hPTH (1-34), 3 days incubation, test concentrations 0.04, 0.2 and 1 μM, mean of 4 pairs): 6.27
6.19 | Cc1nnc2n1-c1ccccc1C(c1ccc(Cl)cc1)=NN2Cc1cccc(Cl)c1 [Example 70, 4-(3-Chlorobenzyl)-6-(4-chlorophenyl)-1-methyl-4H-2,3,4,5,10b-pentaazabenz[e]azulene] | 
 | C=C(Br)CN1N=C(c2ccc(Cl)cc2)c2ccccc2-n2c(C)nnc21 [Example 113, 4-(2-Bromo-2-propenyl)-6-(4-chlorophenyl)-1l-methyl-4H-2,3,4,5,10b-pentaazabenz[e]azulene] | pIC50 (calvaria; Mus musculus, 72 h): 6.30
6.08 | Cc1nnc2n1-c1ccccc1C(c1ccc(Cl)cc1)=NN2CC1CC1 [Example 106, 6-(4-Chlorophenyl)-4-cyclopropylmethyl-1-methyl-4H-2,3,4,5,10b-pentaazabenz[e]azulene] | 
7.74 | Cc1sc2c(c1C)C(c1ccc(Cl)cc1)=NN(Cc1cccnc1)c1nnc(C)n1-2 [Example 139, 4-(4-Chlorophenyl)-2,3,9-trimethyl-6-(pyridin-3-ylmethyl)-6H-5,6,7,8,9a-pentaazathien[2,3-e]azulene] | 
7.30 | Cc1sc2c(c1C)C(c1ccc(Cl)cc1)=NN(Cc1ccncc1)c1nnc(C)n1-2 [Example 140, 4-(4-Chlorophenyl)-2,3,9-trimethyl-6-(pyridin-4-ylmethyl)-6H-5,6,7,8,9a-pentaazathien[2,3-e]azulene] | 
6.25 | COc1cccc(CN2N=C(c3ccc(Cl)cc3)c3ccccc3-n3c(C)nnc32)c1 [Example 76, 6-(4-Chlorophenyl)-4-(3-methoxybenzyl)-1-methyl-4H-2,3,4,5,10b-pentaazabenz[e]azulene] | 
6.03 | Cc1nnc2n1-c1ccccc1C(c1ccccc1)=NN2Cc1cccnc1 [Example 128, 1-Methyl-6-phenyl-4-(pyridin-3-ylmethyl)-4H-2,3,4,5,10b-pentaazabenz[e]azulene] | 
6.35 | CCc1cc2c(s1)-n1c(C)nnc1N(Cc1ccncc1)N=C2c1ccc(Cl)cc1 [Example 142, 4-(4-Chlorophenyl)-2-ethyl-9-methyl-6-(pyridin-4-ylmethyl)-6H-5,6,7,8,9a-pentaazathien[2,3-e]azulene] | 
6.59 | CC(=O)Nc1ccc(CN2N=C(c3ccc(Cl)cc3)c3ccccc3-n3c(C)nnc32)cc1 [Example 189, 4-(4-Acetylaminobenzyl)-6-(4-chlorophenyl)-1-methyl-4H-2,3,4,5,10b-pentaazabenz[e]azulene] | 

Source: US5807850A, “Therapeutic agent for osteoporosis and triazepine compound” (Japan Tobacco, Inc., priority 1994, dated 1998)
